Entries after “also recorded” stand apart in the source; their conditions may differ.
Columns and labels:
[1] = system: lysates of Mtb; assay: Hydrolysis of substrate in Mtb lysates; type: biochemical, Mycobacterium tuberculosis
[2] = target: DopE10A (Mycobacterium tuberculosis, UniProt P9WNU9, E10A)

MAQEQTKRGGGGGDDDDIAGSTAAGQERREKLTEETDDLLDEIDDV LEENAEDFVRAYVQKGG-Glu(AMC) [1a]
hydrolysis of substrate in lysate [1]: hydrolysis; also recorded: could not hydrolyze | activity of DopE10A on the substrate [2]: no activity

Source: US9206241B2, “Modified prokaryotic ubiquitin-like protein and methods of use thereof” (priority 2012, dated 2015)
